Laboratory results taken from PMC12027839, “Aging-Associated Amyloid-β Plaques and Neuroinflammation in Bottlenose Dolphins (Tursiops truncatus) and Novel Cognitive Health-Supporting Roles of Pentadecanoic Acid (C15:0)” (International Journal of Molecular Sciences, 2025).

Legend:
[1] = biological target: T1, Fatty Acid Amide Hydrolase (FAAH) (Homo sapiens, UniProt O00519); test: Enzyme assay with human recombinant FAAH (Sf21 cells), AMC arachidonoyl amide substrate, spectrofluorimetric, […] concentrations; assay type: biochemical
T1 sequence (O00519 whole entry): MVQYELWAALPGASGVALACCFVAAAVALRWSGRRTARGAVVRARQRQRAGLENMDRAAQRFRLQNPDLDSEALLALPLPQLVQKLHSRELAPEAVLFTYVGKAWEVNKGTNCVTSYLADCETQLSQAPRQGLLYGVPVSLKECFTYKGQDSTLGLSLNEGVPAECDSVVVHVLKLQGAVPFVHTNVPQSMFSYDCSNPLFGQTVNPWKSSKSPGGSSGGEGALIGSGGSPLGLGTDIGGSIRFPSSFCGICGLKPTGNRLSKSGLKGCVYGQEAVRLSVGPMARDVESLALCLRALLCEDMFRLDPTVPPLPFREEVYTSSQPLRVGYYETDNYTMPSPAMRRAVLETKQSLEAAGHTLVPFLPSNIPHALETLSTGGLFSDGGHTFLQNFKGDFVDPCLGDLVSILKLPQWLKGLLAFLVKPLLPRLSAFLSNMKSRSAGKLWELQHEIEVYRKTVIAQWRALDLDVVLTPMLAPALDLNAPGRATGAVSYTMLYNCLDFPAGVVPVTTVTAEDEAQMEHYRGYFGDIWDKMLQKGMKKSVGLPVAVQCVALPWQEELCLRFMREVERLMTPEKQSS

[2] = biological target: T2, Monoamine oxidase B (MAO-B) (Homo sapiens, UniProt P27338); test: Enzyme assay with human recombinant MAO-B (insect cells), kynuramine substrate, spectrofluorimetric, […] concentrations; assay type: biochemical
T2 construct: gene MAOB

[3] = biological target: Catechol-O-Methyl Transferase (COMT) (Sus scrofa, UniProt Q99028); test: biochemical; parameters: Eurofins Alzheimer's MoA LeadHunter enzyme assays; percent inhibition of enzyme activity, mean of duplicates; conditions: Ligand or Substrate=Esculetin
Method: (§1) Standardized enzyme and radioligand binding assays were used by an independent third party (Eurofins Discovery, Taiwan) to evaluate C15:0 across ten concentrations and up to 50 µM for activities as part of the Eurofins Discovery Alzheimer’s MoA LeadHunter Panel. Methods employed in this study were adapted from the scientific literature to maximize reliability and reproducibility. Reference standards were run as an integral part of each assay to ensure the validity of the results obtained. IC50 values were determined by a non-linear, least squares regression analysis using MathIQTM (ID Business Solutions Ltd., Woking, UK). This study included evaluated inhibition of the following targets by C15:0 using enzyme assays (Cholinesterase, Acetyl, ACES; Cholinesterase, Butyryl, CHLE; Peptidase, CTSB (Cathepsin B); Cyclooxygenase COX-1; Cyclooxygenase COX-2; Myeloperoxidase; IDO1; Monoamine Oxidase MAO-A; Monoamine Oxidase MAO-B; Peptidase, Endothelin Converting Enzyme-1 (ECE-1); Peptidase, Metalloproteinase, Neutral Endopeptidase; Peptidase, BACE1 (beta-Secretase); Protein Tyrosine Kinase, Fyn; Protein Serine/Threonine Kinase, GSK3B; Protein Serine/Threonine Kinase, MAPK14 (p38alpha); Protein Tyrosine Phosphatase, DUSP22; Fatty Acid Amide Hydrolase (FAAH); Nitric Oxide Synthetase, Inducible (iNOS); Catechol-O-Methyl Transferase (COMT); and Lipoxygenase 15-LOX-2) and radioligand binding assays (Adenosine A2A; Transporter, GABA; GABAA, Ro-15-1788, Hippocampus; Glutamate, AMPA; Glutamate, NMDA, MK-801; Glutamate, NMDA, Polyamine; Glutamate, Metabotropic, mGlu5; Histamine H3; Chemokine CX3CR1; Muscarinic M1; Nicotinic Acetylcholine alpha7, Methyllycaconitine; Serotonin (5-Hydroxytryptamine) 5-HT1A, WAY-100635; Serotonin (5-Hydroxytryptamine) 5-HT4B; Serotonin (5-Hydroxytryptamine) 5-HT6; Sodium Channel, Site 1; Somatostatin sst4; Sigma 2; Sigma1; Platelet Activating Factor (PAF)). Biochemical assay results were presented as the percent inhibition of specific binding or activity. […] Primary screening was conducted in duplicate with semi-quantitative data (e.g., estimated IC50). Significant responses (≥50% inhibition) were noted.

[4] = biological target: T3, Cholinesterase, Acetyl, ACES (Homo sapiens, UniProt P22303); test: biochemical; parameters: Eurofins Alzheimer's MoA LeadHunter enzyme assays; percent inhibition of enzyme activity, mean of duplicates; conditions: Ligand or Substrate=Acetylthiocholine
T3 construct: gene ACHE
T3 sequence (P22303 whole entry): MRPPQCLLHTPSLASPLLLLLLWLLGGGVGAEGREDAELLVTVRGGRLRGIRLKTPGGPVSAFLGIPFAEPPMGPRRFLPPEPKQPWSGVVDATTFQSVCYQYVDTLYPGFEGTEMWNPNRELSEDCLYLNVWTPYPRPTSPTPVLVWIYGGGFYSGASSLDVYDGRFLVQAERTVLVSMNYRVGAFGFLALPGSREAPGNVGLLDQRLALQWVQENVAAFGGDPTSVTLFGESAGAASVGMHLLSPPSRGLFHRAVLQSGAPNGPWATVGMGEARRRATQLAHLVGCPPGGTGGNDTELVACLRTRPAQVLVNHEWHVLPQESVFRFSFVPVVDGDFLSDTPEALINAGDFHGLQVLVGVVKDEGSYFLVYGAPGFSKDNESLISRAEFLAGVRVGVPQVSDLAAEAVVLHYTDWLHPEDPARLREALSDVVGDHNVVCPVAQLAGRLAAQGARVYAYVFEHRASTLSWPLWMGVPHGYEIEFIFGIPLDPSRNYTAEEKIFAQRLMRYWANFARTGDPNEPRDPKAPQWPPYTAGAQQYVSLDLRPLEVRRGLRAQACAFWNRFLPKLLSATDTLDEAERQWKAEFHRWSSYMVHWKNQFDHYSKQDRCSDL
Method: as §1

[5] = biological target: T4, Cholinesterase, Butyryl, CHLE (Homo sapiens, UniProt P06276); test: biochemical; parameters: Eurofins Alzheimer's MoA LeadHunter enzyme assays; percent inhibition of enzyme activity, mean of duplicates; conditions: Ligand or Substrate=S-Butyrylthiocholine
T4 construct: gene BCHE
Method: as §1

Cyclooxygenase COX-1 = biological target: T5, Cyclooxygenase COX-1 (Homo sapiens, UniProt P23219); test: biochemical; parameters: Eurofins Alzheimer's MoA LeadHunter enzyme assays; percent inhibition of enzyme activity, mean of duplicates; conditions: Ligand or Substrate=Arachidonic acid
T5 construct: gene PTGS1
T5 sequence (P23219 whole entry): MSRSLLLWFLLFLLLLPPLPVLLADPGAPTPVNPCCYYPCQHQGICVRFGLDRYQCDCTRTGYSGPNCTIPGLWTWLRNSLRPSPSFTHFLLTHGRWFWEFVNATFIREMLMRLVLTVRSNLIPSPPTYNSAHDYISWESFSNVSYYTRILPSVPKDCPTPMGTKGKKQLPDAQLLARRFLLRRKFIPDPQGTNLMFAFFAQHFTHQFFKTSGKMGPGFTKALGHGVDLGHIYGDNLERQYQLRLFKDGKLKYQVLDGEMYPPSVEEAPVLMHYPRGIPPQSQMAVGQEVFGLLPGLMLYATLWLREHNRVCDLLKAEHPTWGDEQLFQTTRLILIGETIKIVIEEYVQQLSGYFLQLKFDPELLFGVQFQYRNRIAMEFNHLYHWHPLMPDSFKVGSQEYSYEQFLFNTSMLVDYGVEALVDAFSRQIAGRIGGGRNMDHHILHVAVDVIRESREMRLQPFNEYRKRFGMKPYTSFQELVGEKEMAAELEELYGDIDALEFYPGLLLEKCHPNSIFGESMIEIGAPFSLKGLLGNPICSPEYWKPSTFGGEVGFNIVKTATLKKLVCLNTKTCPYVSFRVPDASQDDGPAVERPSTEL
Method: as §1

Cyclooxygenase COX-2 = biological target: T6, Cyclooxygenase COX-2 (Homo sapiens, UniProt P35354); test: biochemical; parameters: Eurofins Alzheimer's MoA LeadHunter enzyme assays; percent inhibition of enzyme activity, mean of duplicates; conditions: Ligand or Substrate=Arachidonic acid
T6 construct: gene PTGS2
Method: as §1

[6] = biological target: T1, Fatty Acid Amide Hydrolase (FAAH); test: biochemical; parameters: Eurofins Alzheimer's MoA LeadHunter enzyme assays; percent inhibition of enzyme activity, mean of duplicates; conditions: Ligand or Substrate=AMC arachidonoyl amide
Method: as §1

IDO1 = IDO1 (Homo sapiens, UniProt P14902); test: biochemical; parameters: Eurofins Alzheimer's MoA LeadHunter enzyme assays; percent inhibition of enzyme activity, mean of duplicates; conditions: Ligand or Substrate=L-tryptophan (L-Trp)
IDO1, sequence (P14902 whole entry): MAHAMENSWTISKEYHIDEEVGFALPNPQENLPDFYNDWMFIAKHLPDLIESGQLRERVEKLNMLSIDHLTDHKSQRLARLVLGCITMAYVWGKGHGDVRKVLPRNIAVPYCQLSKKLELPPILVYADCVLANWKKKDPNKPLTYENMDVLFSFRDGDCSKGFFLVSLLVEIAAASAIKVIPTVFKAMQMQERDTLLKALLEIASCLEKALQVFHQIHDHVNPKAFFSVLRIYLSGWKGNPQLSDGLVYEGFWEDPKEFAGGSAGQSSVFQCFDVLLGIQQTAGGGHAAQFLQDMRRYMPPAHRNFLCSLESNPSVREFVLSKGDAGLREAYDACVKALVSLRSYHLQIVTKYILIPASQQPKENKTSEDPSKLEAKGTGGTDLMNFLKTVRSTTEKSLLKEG
Method: as §1

Lipoxygenase 15-LOX-2 = biological target: T7, Lipoxygenase 15-LOX-2 (Homo sapiens, UniProt O15296); test: biochemical; parameters: Eurofins Alzheimer's MoA LeadHunter enzyme assays; percent inhibition of enzyme activity, mean of duplicates; conditions: Ligand or Substrate=AMC arachidonoyl amide
T7 construct: gene ALOX15B
Method: as §1

Monoamine Oxidase MAO-A = biological target: T8, Monoamine Oxidase MAO-A (Homo sapiens, UniProt P21397); test: biochemical; parameters: Eurofins Alzheimer's MoA LeadHunter enzyme assays; percent inhibition of enzyme activity, mean of duplicates; conditions: Ligand or Substrate=Kynuramine
T8 construct: gene MAOA
Method: as §1

Monoamine Oxidase MAO-B = biological target: T9, Monoamine Oxidase MAO-B (Homo sapiens, UniProt P27338); test: biochemical; parameters: Eurofins Alzheimer's MoA LeadHunter enzyme assays; percent inhibition of enzyme activity, mean of duplicates; conditions: Ligand or Substrate=Kynuramine
T9 construct: gene MAOB
Method: as §1

Myeloperoxidase = biological target: T10, Myeloperoxidase (Homo sapiens, UniProt P05164); test: biochemical; parameters: Eurofins Alzheimer's MoA LeadHunter enzyme assays; percent inhibition of enzyme activity, mean of duplicates; conditions: Ligand or Substrate=Guaiacol
T10 construct: gene MPO
Method: as §1

[7] = biological target: Peptidase, BACE1 (beta-Secretase) (Homo sapiens, UniProt P56817); test: biochemical; parameters: Eurofins Alzheimer's MoA LeadHunter enzyme assays; percent inhibition of enzyme activity, mean of duplicates; conditions: Ligand or Substrate=MOCAc-S-E-V-N-L-D-A-E-F-R-K(Dnp)-R-R-NH2
Method: as §1

[8] = biological target: Peptidase, CTSB (Cathepsin B) (Homo sapiens, UniProt P07858); test: biochemical; parameters: Eurofins Alzheimer's MoA LeadHunter enzyme assays; percent inhibition of enzyme activity, mean of duplicates; conditions: Ligand or Substrate=Boc-Leu-Arg-Arg-AMC
Method: as §1

[9] = biological target: T11, Peptidase, Endothelin Converting Enzyme-1 (ECE-1) (Homo sapiens, UniProt P42892); test: biochemical; parameters: Eurofins Alzheimer's MoA LeadHunter enzyme assays; percent inhibition of enzyme activity, mean of duplicates; conditions: Ligand or Substrate=Mca-[…]Dnp)
T11 construct: gene ECE1
T11 sequence (P42892 whole entry): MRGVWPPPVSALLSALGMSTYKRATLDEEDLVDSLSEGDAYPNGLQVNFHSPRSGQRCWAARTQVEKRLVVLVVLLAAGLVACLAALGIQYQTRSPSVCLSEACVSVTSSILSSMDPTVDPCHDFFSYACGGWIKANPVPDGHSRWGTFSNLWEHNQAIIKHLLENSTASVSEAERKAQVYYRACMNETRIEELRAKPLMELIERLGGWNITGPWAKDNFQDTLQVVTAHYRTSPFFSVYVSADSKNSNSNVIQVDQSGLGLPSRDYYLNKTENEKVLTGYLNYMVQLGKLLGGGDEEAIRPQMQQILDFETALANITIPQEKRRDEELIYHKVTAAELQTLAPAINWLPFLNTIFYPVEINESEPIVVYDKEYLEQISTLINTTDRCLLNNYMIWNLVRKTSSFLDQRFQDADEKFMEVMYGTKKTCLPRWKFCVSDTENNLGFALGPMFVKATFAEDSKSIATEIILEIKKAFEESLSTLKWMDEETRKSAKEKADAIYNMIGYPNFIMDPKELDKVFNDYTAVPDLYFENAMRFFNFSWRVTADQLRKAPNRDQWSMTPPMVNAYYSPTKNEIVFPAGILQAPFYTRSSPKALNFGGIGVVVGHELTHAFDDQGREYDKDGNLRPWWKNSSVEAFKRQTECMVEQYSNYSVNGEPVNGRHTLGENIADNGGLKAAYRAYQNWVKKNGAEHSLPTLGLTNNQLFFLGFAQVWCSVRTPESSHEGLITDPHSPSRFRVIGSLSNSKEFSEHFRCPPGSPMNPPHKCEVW
Method: as §1

[10] = biological target: T12, Peptidase, Metalloproteinase, Neutral Endopeptidase (Homo sapiens, UniProt P08473); test: biochemical; parameters: Eurofins Alzheimer's MoA LeadHunter enzyme assays; percent inhibition of enzyme activity, mean of duplicates; conditions: Ligand or Substrate=Mca-R-P-P-G-F-S-A-F-K(Dnp)-OH
T12 construct: gene MME
T12 sequence (P08473 whole entry): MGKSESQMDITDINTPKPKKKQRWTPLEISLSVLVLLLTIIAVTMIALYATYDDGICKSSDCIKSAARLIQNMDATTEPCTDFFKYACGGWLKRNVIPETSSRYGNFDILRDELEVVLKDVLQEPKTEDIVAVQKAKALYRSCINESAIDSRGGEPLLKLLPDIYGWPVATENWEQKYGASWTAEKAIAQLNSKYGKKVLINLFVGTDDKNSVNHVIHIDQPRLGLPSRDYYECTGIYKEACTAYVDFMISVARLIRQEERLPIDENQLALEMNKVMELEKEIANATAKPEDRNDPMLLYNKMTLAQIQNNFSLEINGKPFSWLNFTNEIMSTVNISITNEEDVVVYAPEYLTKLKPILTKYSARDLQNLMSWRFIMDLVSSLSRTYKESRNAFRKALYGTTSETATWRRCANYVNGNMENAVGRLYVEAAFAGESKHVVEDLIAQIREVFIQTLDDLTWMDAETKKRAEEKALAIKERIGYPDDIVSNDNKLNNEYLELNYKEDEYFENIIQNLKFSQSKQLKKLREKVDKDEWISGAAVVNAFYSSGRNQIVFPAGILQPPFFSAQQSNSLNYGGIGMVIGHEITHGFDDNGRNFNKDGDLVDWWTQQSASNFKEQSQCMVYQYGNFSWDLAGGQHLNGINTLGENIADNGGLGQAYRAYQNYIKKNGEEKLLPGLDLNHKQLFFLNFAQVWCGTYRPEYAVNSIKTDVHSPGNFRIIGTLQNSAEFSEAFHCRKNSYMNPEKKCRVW
Method: as §1

[11] = biological target: Protein Serine/Threonine Kinase, GSK3B (Homo sapiens, UniProt P49841); test: biochemical; parameters: Eurofins Alzheimer's MoA LeadHunter enzyme assays; percent inhibition of enzyme activity, mean of duplicates; conditions: Ligand or Substrate=Phospho-glycogen synthase peptide-2
Method: as §1

[12] = biological target: Protein Serine/Threonine Kinase, MAPK14 (p38alpha) (Homo sapiens, UniProt Q16539); test: biochemical; parameters: Eurofins Alzheimer's MoA LeadHunter enzyme assays; percent inhibition of enzyme activity, mean of duplicates; conditions: Ligand or Substrate=Myelin Basic Protein (MBP)
Method: as §1

[13] = biological target: Protein Tyrosine Kinase, Fyn (Homo sapiens, UniProt P06241); test: biochemical; parameters: Eurofins Alzheimer's MoA LeadHunter enzyme assays; percent inhibition of enzyme activity, mean of duplicates; conditions: Ligand or Substrate=Poly(Glu:Tyr)
Method: as §1

[14] = biological target: Protein Tyrosine Phosphatase, DUSP22 (Homo sapiens, UniProt Q9NRW4); test: biochemical; parameters: Eurofins Alzheimer's MoA LeadHunter enzyme assays; percent inhibition of enzyme activity, mean of duplicates; conditions: Ligand or Substrate=DiFMUP
Method: as §1

Adenosine A2A = biological target: T13, Adenosine A2A (Homo sapiens, UniProt P29274); test: biochemical; parameters: Eurofins Alzheimer's MoA LeadHunter radioligand binding assays; percent inhibition of specific binding, mean of duplicates; conditions: Ligand or Substrate=[3H]CGS-21680
T13 construct: gene ADORA2A
Method: as §1

Chemokine CX3CR1 = Chemokine CX3CR1 (Homo sapiens, UniProt P49238); test: biochemical; parameters: Eurofins Alzheimer's MoA LeadHunter radioligand binding assays; percent inhibition of specific binding, mean of duplicates; conditions: Ligand or Substrate=[125I]Fractalkine
Method: as §1

[15] = biological target: T14, Glutamate, Metabotropic, mGlu5 (Homo sapiens, UniProt P41594); test: biochemical; parameters: Eurofins Alzheimer's MoA LeadHunter radioligand binding assays; percent inhibition of specific binding, mean of duplicates; conditions: Ligand or Substrate=[3H]Quisqualic acid
T14 construct: gene GRM5
Method: as §1

Histamine H3 = biological target: T15, Histamine H3 (Homo sapiens, UniProt Q9Y5N1); test: biochemical; parameters: Eurofins Alzheimer's MoA LeadHunter radioligand binding assays; percent inhibition of specific binding, mean of duplicates; conditions: Ligand or Substrate=[3H]N-alpha-Methylhistamine (NAMH)
T15 construct: gene HRH3
Method: as §1

Muscarinic M1 = biological target: T16, Muscarinic M1 (Homo sapiens, UniProt P11229); test: biochemical; parameters: Eurofins Alzheimer's MoA LeadHunter radioligand binding assays; percent inhibition of specific binding, mean of duplicates; conditions: Ligand or Substrate=[3H]N-Methylscopolamine
T16 construct: gene CHRM1
Method: as §1

[16] = biological target: T17, Nicotinic Acetylcholine alpha7, Methyllycaconitine (Rattus norvegicus, UniProt Q05941); test: biochemical; parameters: Eurofins Alzheimer's MoA LeadHunter radioligand binding assays; percent inhibition of specific binding, mean of duplicates; conditions: Ligand or Substrate=[3H]Methyllycaconitine
T17 construct: gene Chrna7; methyllycaconitine site
Method: as §1

[17] = biological target: T18, Platelet Activating Factor (PAF) (Homo sapiens, UniProt P25105); test: biochemical; parameters: Eurofins Alzheimer's MoA LeadHunter radioligand binding assays; percent inhibition of specific binding, mean of duplicates; conditions: Ligand or Substrate=[3H]PAF
T18 construct: gene PTAFR
Method: as §1

[18] = biological target: T19, Serotonin (5-Hydroxytryptamine) 5-HT1A, WAY-100635 (Homo sapiens, UniProt P08908); test: biochemical; parameters: Eurofins Alzheimer's MoA LeadHunter radioligand binding assays; percent inhibition of specific binding, mean of duplicates; conditions: Ligand or Substrate=[3H]WAY100635
T19 construct: gene HTR1A; WAY-100635
T19 sequence (P08908 whole entry): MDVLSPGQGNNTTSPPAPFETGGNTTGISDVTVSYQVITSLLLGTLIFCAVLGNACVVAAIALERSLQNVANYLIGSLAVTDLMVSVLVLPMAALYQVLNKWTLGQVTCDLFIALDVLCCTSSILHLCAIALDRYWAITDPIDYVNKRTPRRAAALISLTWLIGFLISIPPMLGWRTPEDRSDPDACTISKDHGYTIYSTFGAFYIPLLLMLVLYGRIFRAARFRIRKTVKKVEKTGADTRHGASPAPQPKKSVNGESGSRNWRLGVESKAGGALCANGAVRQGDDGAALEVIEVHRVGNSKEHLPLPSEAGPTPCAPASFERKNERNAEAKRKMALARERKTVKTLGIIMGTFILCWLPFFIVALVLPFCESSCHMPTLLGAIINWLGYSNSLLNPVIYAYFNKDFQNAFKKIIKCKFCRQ
Method: as §1

[19] = biological target: T20, Serotonin (5-Hydroxytryptamine) 5-HT4B (Homo sapiens, UniProt Q13639); test: biochemical; parameters: Eurofins Alzheimer's MoA LeadHunter radioligand binding assays; percent inhibition of specific binding, mean of duplicates; conditions: Ligand or Substrate=[3H]GR-113808
T20 construct: gene HTR4; isoform 5-HT4B
T20 sequence (Q13639 whole entry, canonical isoform): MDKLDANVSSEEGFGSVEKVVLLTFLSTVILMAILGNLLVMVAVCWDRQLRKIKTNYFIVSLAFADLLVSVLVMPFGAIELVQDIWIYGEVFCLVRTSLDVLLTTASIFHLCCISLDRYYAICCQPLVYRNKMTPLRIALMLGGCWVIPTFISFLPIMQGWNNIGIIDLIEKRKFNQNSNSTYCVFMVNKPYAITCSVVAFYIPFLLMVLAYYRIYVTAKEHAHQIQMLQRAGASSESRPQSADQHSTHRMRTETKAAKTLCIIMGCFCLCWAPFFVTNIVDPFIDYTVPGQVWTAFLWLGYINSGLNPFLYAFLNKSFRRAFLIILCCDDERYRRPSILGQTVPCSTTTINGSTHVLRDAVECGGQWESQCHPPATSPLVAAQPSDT
Method: as §1

[20] = biological target: T21, Serotonin (5-Hydroxytryptamine) 5-HT6 (Homo sapiens, UniProt P50406); test: biochemical; parameters: Eurofins Alzheimer's MoA LeadHunter radioligand binding assays; percent inhibition of specific binding, mean of duplicates; conditions: Ligand or Substrate=[3H]Lysergic acid diethylamide (LSD)
T21 construct: gene HTR6
Method: as §1

Sigma1 = biological target: T22, Sigma1 (Homo sapiens, UniProt Q99720); test: biochemical; parameters: Eurofins Alzheimer's MoA LeadHunter radioligand binding assays; percent inhibition of specific binding, mean of duplicates; conditions: Ligand or Substrate=[3H]Pentazocine
T22 construct: gene SIGMAR1
Method: as §1

Somatostatin sst4 = biological target: T23, Somatostatin sst4 (Homo sapiens, UniProt P31391); test: biochemical; parameters: Eurofins Alzheimer's MoA LeadHunter radioligand binding assays; percent inhibition of specific binding, mean of duplicates; conditions: Ligand or Substrate=[125I]Tyr11-Somatostatin 14
T23 construct: gene SSTR4
T23 sequence (P31391 whole entry): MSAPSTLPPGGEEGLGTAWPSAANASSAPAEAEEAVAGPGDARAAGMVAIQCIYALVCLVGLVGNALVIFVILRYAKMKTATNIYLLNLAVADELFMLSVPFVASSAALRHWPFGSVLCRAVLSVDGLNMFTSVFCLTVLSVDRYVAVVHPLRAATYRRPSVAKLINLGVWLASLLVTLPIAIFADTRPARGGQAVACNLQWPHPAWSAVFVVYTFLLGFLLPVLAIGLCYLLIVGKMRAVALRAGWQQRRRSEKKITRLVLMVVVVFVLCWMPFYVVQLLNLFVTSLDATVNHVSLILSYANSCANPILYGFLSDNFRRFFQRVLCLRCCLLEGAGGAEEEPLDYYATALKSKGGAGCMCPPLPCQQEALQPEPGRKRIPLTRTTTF
Method: as §1

Molecule `CCCCCCCCCCCCCCC(=O)O` [C15:0, Pentadecanoic acid] has an IC50 [1] of 2510 nM, an IC50 [2] of 19.4 µM and an inhibition at 20 µM [3] of 1.5%. The inhibition at 20 µM [4] was 44.7%, the inhibition at 20 µM [5] was 2.5% and the inhibition at 20 µM (Cyclooxygenase COX-1) was -17%. It also gave an inhibition at 20 µM (Cyclooxygenase COX-2) of 5.3%, an inhibition at 20 µM [6] of 70.3% and an inhibition at 20 µM (IDO1) of 39.4%. For the same molecule, the inhibition at 20 µM (Lipoxygenase 15-LOX-2) was 8%, the inhibition at 20 µM (Monoamine Oxidase MAO-A) was 11.4% and the inhibition at 20 µM (Monoamine Oxidase MAO-B) was 64.7%. For the same molecule, the inhibition at 20 µM (Myeloperoxidase) was 44.8%, the inhibition at 20 µM [7] was 2.4% and the inhibition at 20 µM [8] was -35.2%. For the same molecule, the inhibition at 20 µM [9] was 7.1%, the inhibition at 20 µM [10] was 2.1% and the inhibition at 20 µM [11] was 15%. It also gave an inhibition at 20 µM [12] of -14.8%, an inhibition at 20 µM [13] of -16.2% and an inhibition at 20 µM [14] of -28.1%. For the same molecule, the inhibition at 20 µM (Adenosine A2A) was 10.7%, the inhibition at 20 µM (Chemokine CX3CR1) was 5.3% and the inhibition at 20 µM [15] was 0%. For the same molecule, the inhibition at 20 µM (Histamine H3) was 1.7%, the inhibition at 20 µM (Muscarinic M1) was 9% and the inhibition at 20 µM [16] was -9.1%. For the same molecule, the inhibition at 20 µM [17] was -6.6%, the inhibition at 20 µM [18] was 3.9% and the inhibition at 20 µM [19] was -1.7%. The inhibition at 20 µM [20] was -16.1%, the inhibition at 20 µM (Sigma1) was -18.6% and the inhibition at 20 µM (Somatostatin sst4) was -4.4%.
